From patent US7579359B2, “1-alkoxy 1H-imidazo ring systems and methods” (3M Innovative Properties Company, priority 2004, dated 2009)

SMILES	melting point [°C]
CCOn1cnc2c(N)nc3ccccc3c21 [Example 20, 1-Ethoxy-1H-imidazo[4,5-c]quinolin-4-amine]	179 to 181
COn1cnc2c(N)nc3ccccc3c21 [Example 22, 1-Methoxy-1H-imidazo[4,5-c]quinolin-4-amine]	238 to 240
CCc1nc2c(N)nc3ccccc3c2n1OC [Example 4, 2-Ethyl-1-methoxy-1H-imidazo[4,5-c]quinolin-4-amine]	216 to 217
CC(C)On1c(C2CCCCC2)nc2c(N)nc3ccccc3c21 [Example 12, 2-Cyclohexyl-1-isopropoxy-1H-imidazo[4,5-c]quinolin-4-amine]	175 to 178
CCOCc1nc2c(N)nc3ccccc3c2n1OC(C)C [Example 18, 2-(Ethoxymethyl)-1-isopropoxy-1H-imidazo[4,5-c]quinolin-4-amine]	179 to 181
COn1c(C(C)(C)C)nc2c(N)nc3ccccc3c21 [Example 15, 2-Tert-butyl-1-methoxy-1H-imidazo[4,5-c]quinolin-4-amine]	195 to 197
CCCc1nc2c(N)nc3ccccc3c2n1OCC [Example 3, 1-Ethoxy-2-propyl-1H-imidazo[4,5-c]quinolin-4-amine]	198 to 199
CCOn1c(C)nc2c(N)nc3ccccc3c21 [Example 9, 1-Ethoxy-2-methyl-1H-imidazo[4,5-c]quinolin-4-amine]	219 to 221
CCCc1nc2c(N)nc3ccccc3c2n1OC [Example 1, 1-Methoxy-2-propyl-1H-imidazo[4,5-c]quinolin-4-amine]	210 to 211
CCCc1nc2c(N)nc3ccccc3c2n1O [Example 24, 4-Amino-2-propyl-1H-imidazo[4,5-c]quinolin-1-ol]	232 to 235
Cc1nc2c(N)nc3ccccc3c2n1OC(C)(C)C [Example 30, 1-tert-Butoxy-2-methyl-1H-imidazo[4,5-c]quinolin-4-amine]	255 to 257
CCCCc1nc2c(N)nc3ccccc3c2n1OC [Example 27, 2-Butyl-1-methoxy-1H-imidazo[4,5-c]quinolin-4-amine]	197 to 199
Cc1nc2c(N)nc3ccccc3c2n1OCC(C)C [Example 8, 1-Isobutoxy-2-methyl-1H-imidazo[4,5-c]quinolin-4-amine]	215 to 216
COn1c(C2CCCCC2)nc2c(N)nc3ccccc3c21 [Example 13, 2-Cyclohexyl-1-methoxy-1H-imidazo[4,5-c]quinolin-4-amine]	220 to 222
COn1c(C(C)C)nc2c(N)nc3ccccc3c21 [Example 25, 2-Isopropyl-1-methoxy-1H-imidazo[4,5-c]quinolin-4-amine]	217 to 219
CC(C)On1cnc2c(N)nc3ccccc3c21 [Example 23, 1-Isopropoxy-1H-imidazo[4,5-c]quinolin-4-amine]	224 to 225
CCCc1nc2c(N)nc3ccccc3c2n1OCC(N)=O [Example 33, 2-[(4-Amino-2-propyl-1H-imidazo[4,5-c]quinolin-1-yl)oxy]acetamide]	192 to 194

The remaining lines, values ahead:

melting point [°C]	SMILES
187 to 189	CC(C)On1c(C(C)(C)C)nc2c(N)nc3ccccc3c21 [Example 14, 2-Tert-butyl-1-isopropoxy-1H-imidazo[4,5-c]quinolin-4-amine]
204 to 206	CC(C)On1c(CO)nc2c(N)nc3ccccc3c21 [Example 19]
241 to 243	COn1c(-c2ccccc2)nc2c(N)nc3ccccc3c21 [Example 10, 1-Methoxy-2-phenyl-1H-imidazo[4,5-c]quinolin-4-amine]
242 to 243	CCc1nc2c(N)nc3ccccc3c2n1OC(C)C [Example 5, 2-Ethyl-1-isopropoxy-1H-imidazo[4,5-c]quinolin-4-amine]
177 to 179	CC(C)On1c(C(C)C)nc2c(N)nc3ccccc3c21 [Example 26, 1-Isopropoxy-2-isopropyl-1H-imidazo[4,5-c]quinolin-4-amine]
243	Cc1nc2c(N)nc3ccccc3c2n1OC(C)C [Example 6, 1-Isopropoxy-2-methyl-1H-imidazo[4,5-c]quinolin-4-amine]
177 to 179	Nc1nc2ccccc2c2c1nc(-c1ccccc1)n2OCc1ccccc1 [Example 16, 1-(Benzyloxy)-2-phenyl-1H-imidazo[4,5-c]quinolin-4-amine]
237 to 238	COn1c(C)nc2c(N)nc3ccccc3c21 [Example 7, 1-Methoxy-2-methyl-1H-imidazo[4,5-c]quinolin-4-amine]
215 to 217	Cc1nc2c(N)nc3ccccc3c2n1OCc1ccccc1[N+](=O)[O-] [Example 29, 2-Methyl-1-[(2-nitrobenzyl)oxy]-1H-imidazo[4,5-c]quinolin-4-amine]
237 to 239	Cc1nc2c(N)nc3ccccc3c2n1OCCOc1ccccc1 [Example 31, 2-Methyl-1-(2-phenoxyethoxy)-1H-imidazo[4,5-c]quinolin-4-amine]
188 to 191	CC(C)On1c(-c2ccccc2)nc2c(N)nc3ccccc3c21 [Example 11, 1-Isopropoxy-2-phenyl-1H-imidazo[4,5-c]quinolin-4-amine]
164 to 166	CCCc1nc2c(N)nc3ccccc3c2n1OCc1ccccc1 [Example 2, 1-Benzyloxy-2-propyl-1H-imidazo[4,5-c]quinolin-4-amine]
118 to 119	CCCCc1nc2c(N)nc3ccccc3c2n1OC(C)C [Example 28, 2-Butyl-1-isopropoxy-1H-imidazo[4,5-c]quinolin-4-amine]
